Type in all cases: cell-based
In experiment [1] the test system is HTT mRNA alternative junction (AJ). The experiment in a line: Splicing RT-qPCR assay, increase of HTT alternative junction (AJ) mRNA. The note with it: A673 or K562 cells, 24 hours compound treatment, concentration having 50% response in AJ increase. As to the method:
(§1) Compounds described herein were used to modulate RNA transcript abundance in cells. The expression of a target mRNA was measured by detecting the formation of an exon-exon junction in the canonical transcript (CJ). A compound mediated exon-inclusion event was detected by observing an increase in formation of a new junction with an alternative exon (AJ). Real-time qPCR assays were used to detect these splicing switches and interrogate the potency of various compounds towards different target genes. A high-throughput real time quantitative PCR (RT-qPCR) assay was developed to measure these two isoforms of the mRNA (CJ and AJ) for an exemplary gene, HTT, together with a control housekeeping gene, GAPDH or GUSB or PPIA, used for normalization. Briefly, the A673 or K562 cell line was treated with various compounds described herein (e.g., compounds of Formula (I)). After treatment, the levels of the HTT mRNA targets were determined from each sample of cell lysate by cDNA synthesis followed by qPCR.
(§2) The A673 cell line was cultured in DMEM with 10% FBS. Cells were diluted with full growth media and plated in a 96-well plate (15,000 cells in 100 ul media per well). The plate was incubated at 37° C. with 5% CO2 for 24 hours to allow cells to adhere. An 11-point 3-fold serial dilution of the compounds was made in DMSO then diluted in media in an intermediate plate. Compounds were transferred from the intermediate plate to the cell plate with the top dose at a final concentration of 10 uM in the well. Final DMSO concentration was kept at or below 0.25%. The cell plate was returned to the incubator at 37° C. with 5% CO2 for an additional 24 hours.
(§3) The K562 cell line was cultured in IMDM with 10% FBS. For K562, cells were diluted with full growth media and plated in either a 96-well plate (50,000 cells in 50 uL media per well) or a 384-well plate (8,000-40,000 cells in 45 uL media per well). An 11-point 3-fold serial dilution of the compounds were made in DMSO then diluted in media in an intermediate plate. Compound was transferred from the intermediate plate to the cell plate with the top dose at a final concentration of 10 uM in the well. Final DMSO concentration was kept at or below 0.25%. Final volume was 100 uL for 96-well plate and 50 uL for 384-well plate. The cell plate was then placed in an incubator at 37° C. with 5% CO2 for 24 hours.
(§4) The cells were then gently washed with 50 uL-100 uL cold PBS before proceeding to addition of lysis buffer. 30 uL-50 uL of room temperature lysis buffer with DNAse I (and optionally RNAsin) was added to each well. Cells were shaken/mixed thoroughly at room temperature for 5-10 minutes for lysis to take place and then 3 uL-5 uL of room temperature stop solution was added and wells were shaken/mixed again. After 2-5 minutes, the cell lysate plate was transferred to ice for RT-qPCR reaction setup. The lysates could also be frozen at −80° C. for later use.
(§5) In some cases, a direct lysis buffer was used. An appropriate volume of 3× lysis buffer (10 mM Tris, 150 mM NaCl, 1.5%-2.5% Igepal and 0.1-1 U/uL RNAsin, pH 7.4) was directly added to either K562 or A673 cells in media and mixed by pipetting 3 times. The plates were then incubated at room temperature with shaking/rocking for 20-50 minutes to allow for lysis to take place. After this time, the cell lysate plate was transferred to ice to set up for the RT-qPCR reactions. The lysates could also be frozen at −80° C. for later use.
(§6) To set up 10 uL RT-qPCR reactions, cell lysates were transferred to 384-well qPCR plates containing the master mix according to the table below. The plates were sealed, gently vortexed, and spun down before the run. The volumes were adjusted accordingly in some instances where the reaction was carried in 20 uL. The table below summarizes the components of the RT-qPCR reactions:
(§7) The RT-qPCR reaction was performed using a QuantStudio (ThermoFisher) under the following fast cycling conditions. […]
(In qPCR the cycle at which signal appears reflects the starting amount.)

Experiment [2] relates to HTT mRNA canonical junction (CJ). The experiment in a line: Splicing RT-qPCR assay, decrease of HTT canonical junction (CJ) mRNA. The note with it: A673 or K562 cells, 24 hours compound treatment, concentration having 50% response in CJ decrease. As to the method:
as §1, §2, §3, §4, §5, §6, §7

Experiment [3] has as its system HTT CJ mRNA. The experiment in a line: Gene panel canonical junction qPCR assay, HTT. The note with it: protocol of Example 42, read-out: HTT IC50 (decrease in CJ mRNA levels). As to the method: as §1, §2, §3
(§8) The data analysis was performed by first determining the ACt vs the housekeeper gene. This ACt was then normalized against the DMSO control (AACt) and converted to RQ (relative quantification) using the 2^(−ΔΔCt) equation. The RQ were then converted to a percentage response by arbitrarily setting an assay window of 3.5 ΔCt for HTT-CJ and an assay window of 9 ΔCt for HTT-AJ. […] The percentage response was then fitted to the 4 parametric logistic equation to evaluate the concentration dependence of compound treatment. The increase in AJ mRNA is reported as AC50 (compound concentration having 50% response in AJ increase) while the decrease in CJ mRNA levels is reported as IC50 (compound concentration having 50% response in CJ decrease).
(§9) Additional studies were carried out for a larger panel of genes using the protocol provided above. The junction between flanking upstream and downstream exons was used to design canonical junction qPCR assays. At least one of the forward primer, reverse primer or the CY5-labeled 5′ nuclease probe (with 3′ quencher such as ZEN/Iowa Black FQ) was designed to overlap with the exon junction to capture the CJ mRNA transcript. BLAST was used to confirm the specificity of the probeset and parameters such as melting temperature, GC content, amplicon size, and primer dimer formation are considered during their design. Data for the decrease in CJ mRNA levels for three exemplary genes (HTT, SMN2, and Target C) analyzed in this panel are reported as IC50 (compound concentration having 50% response in CJ decrease).

Experiment [4] deals with Target C CJ mRNA. In words: Gene panel canonical junction qPCR assay, Target C. The note with it: protocol of Example 42, read-out: Target C IC50 (decrease in CJ mRNA levels). As to the method: as §1, §2, §3, §8, §9
In experiment [5] the test system is SMN2 CJ mRNA. In words: Gene panel canonical junction qPCR assay, SMN2. The note with it: protocol of Example 42, read-out: SMN2 IC50 (decrease in CJ mRNA levels). As to the method:
as §1, §2, §3, §8, §9

Results on 16 compounds are retold here after US20230365566A1, “HETEROCYCLIC AMIDES AND THEIR USE FOR MODULATING SPLICING” (REMIX THERAPEUTICS INC., priority 2020, published 2023).

Counter-ions that a name gives are not always drawn.

By AC50 is commonly meant the concentration at which the activity in the assay is half-maximal. Read a high AC50 as weaker potency. As a reminder, the IC50 is the concentration that inhibits the measured activity by half.

With `Cc1cn2nc(NC(=O)c3ccc(C4CCNCC4)c4cc(C)oc34)cc(C)c2n1` [Compound 118, N-[2,8-dimethylimidazo[1,2-b]pyridazin-6-yl]-2-methyl-4-(piperidin-4-yl)-1-benzofuran-7-carboxamide], the AC50 in experiment [1] and in experiment [2] was 1000 to 10000 nM each time. The IC50 is 1000 to 10000 nM in experiment [3] and more than 10000 nM in experiment [4].
Turning to `Cc1cn2nc(NC(=O)c3ccc(C4CCNCC4)c4ccoc34)cc(C)c2n1` [Compound 119, N-[2,8-dimethylimidazo[1,2-b]pyridazin-6-yl]-4-(piperidin-4-yl)-1-benzofuran-7-carboxamide], the AC50 was more than 10000 nM in experiment [1] and 1000 to 10000 nM in experiment [2]. Further, the results for the IC50 in experiment [3], in experiment [5] and in experiment [4] were 1000 to 10000 nM, 100 to 1000 nM and more than 10000 nM, respectively.
With `Cc1cn2cc(NC(=O)c3ccc(N4CCNCC4)c4nc(C)oc34)cc(F)c2n1` [Compound 140], the AC50 in experiment [1] and in experiment [2] was 1000 to 10000 nM throughout. For the same compound, the IC50 fell in the range of 1000 to 10000 nM in experiment [3] and 100 to 1000 nM in experiment [5].
As for `Cc1cn2cc(NC(=O)c3ccc(N4CCNCC4)c4oc(C)nc34)cc(F)c2n1` [Compound 141, N-[8-fluoro-2-methylimidazo[1,2-a]pyridin-6-yl]-2-methyl-7-(piperazin-1-yl)-1,3-benzoxazole-4-carboxamide hydrochloride], the concentration at half-maximal activity (AC50) in experiment [1] and in experiment [2] was less than 100 nM throughout. Besides, the IC50 in experiment [3] is less than 100 nM; in experiment [5], less than 100 nM; in experiment [4], 100 to 1000 nM.
For `Cc1cn2cc(NC(=O)c3ccc(N4CCNCC4)c4cc(C)oc34)cc(F)c2n1` [Compound 142, N-[8-fluoro-2-methylimidazo[1,2-a]pyridin-6-yl]-2-methyl-4-(piperazin-1-yl)-1-benzofuran-7-carboxamide], the AC50 in experiment [1] and in experiment [2] was 1000 to 10000 nM each time. Further, the IC50 in experiment [3] is 1000 to 10000 nM; in experiment [5], less than 100 nM; in experiment [4], 100 to 1000 nM.
As for `Cc1cn2cc(NC(=O)c3ccc(N4CCNCC4)c4cn(C)nc34)cc(F)c2n1` [Compound 143, N-[8-fluoro-2-methylimidazo[1,2-a]pyridin-6-yl]-2-methyl-4-(piperazin-1-yl) indazole-7-carboxamide], the AC50 in experiment [1] and in experiment [2] was 100 to 1000 nM each time. Moreover, the IC50 is 100 to 1000 nM in experiment [3], less than 100 nM in experiment [5] and less than 100 nM in experiment [4].
On to `Cc1cn2cc(NC(=O)c3ccc(C4CCNCC4)c4cc(C)oc34)cc(F)c2n1` [Compound 145, N-[8-fluoro-2-methylimidazo[1,2-a]pyridin-6-yl]-2-methyl-4-(piperidin-4-yl)-1-benzofuran-7-carboxamide], for which the AC50 in experiment [1] and in experiment [2] was 1000 to 10000 nM throughout. Further, the figures for the IC50 in experiment [3], in experiment [5] and in experiment [4] were 1000 to 10000 nM, less than 100 nM and 100 to 1000 nM, respectively.
For the compound `Cc1cn2nc(NC(=O)c3ccc(N4CCNCC4)c4cc(C)oc34)cc(C)c2n1` [Compound 148, N-[2,8-dimethylimidazo[1,2-b]pyridazin-6-yl]-2-methyl-4-(piperazin-1-yl)-1-benzofuran-7-carboxamide], the AC50 in experiment [1] and in experiment [2] was 1000 to 10000 nM throughout. The IC50 fell in the range of 1000 to 10000 nM in experiment [3], 100 to 1000 nM in experiment [5] and 1000 to 10000 nM in experiment [4].
`Cc1cn2cc(NC(=O)c3ccc(C4CCNCC4)c4ccoc34)cc(F)c2n1` [Compound 149, N-[8-fluoro-2-methylimidazo[1,2-a]pyridin-6-yl]-4-(piperidin-4-yl)-1-benzofuran-7-carboxamide hydrochloride]: the AC50 in experiment [1] and in experiment [2] was 1000 to 10000 nM in each case. The IC50 in experiment [3] is 1000 to 10000 nM; in experiment [5], less than 100 nM; in experiment [4], more than 10000 nM.
Consider `CCC1CN(c2ccc(C(=O)Nc3cc(F)c4nc(C)cn4c3)c3oc(C)cc23)CCN1` (centres unmarked) [Compound 192], for which the IC50 was 1000 to 10000 nM in experiment [3], less than 100 nM in experiment [5] and 1000 to 10000 nM in experiment [4].
As to `Cc1cn2cc(NC(=O)c3ccc(N4CC(C)(C)NC(C)(C)C4)c4cc(C)oc34)cc(F)c2n1` [Compound 195], the results for the IC50 in experiment [3], in experiment [5] and in experiment [4] were more than 10000 nM, less than 100 nM and more than 10000 nM, respectively.
As to `Cc1cn2nc(-c3ccc(C(=O)NC4CCNCC4)c4oc(C)cc34)cc(C)c2n1` [Compound 282, 4-{2,8-dimethylimidazo[1,2-b]pyridazin-6-yl}-2-methyl-N-(piperidin-4-yl)-1-benzofuran-7-carboxamide], the AC50 in experiment [1] and in experiment [2] was 1000 to 10000 nM each time.
Regarding `Cc1cn2cc(-c3ccc(C(=O)NC4CCNCC4)c4oc(C)cc34)cc(F)c2n1` [Compound 283, 4-{8-fluoro-2-methylimidazo[1,2-a]pyridin-6-yl}-2-methyl-N-(piperidin-4-yl)-1-benzofuran-7-carboxamide], the AC50 in experiment [1] is more than 10000 nM; in experiment [2] it was 1000 to 10000 nM.
In the same order, the values of `CCn1cc2c(N3CCNCC3)ccc(C(=O)Nc3cc(Cl)c4nc(C)cn4c3)c2n1` [Compound 284, N-{8-chloro-2-methylimidazo[1,2-a]pyridin-6-yl}-2-ethyl-4-(piperazin-1-yl)indazole-7-carboxamide] are more than 10000 nM and 1000 to 10000 nM.
For the compound `Cc1cn2cc(NC(=O)c3ccc(C4CCNCC4)c4cn(C)nc34)cc(Cl)c2n1` [Compound 285, N-{8-chloro-2-methylimidazo[1,2-a]pyridin-6-yl}-2-methyl-4-(piperidin-4-yl) indazole-7-carboxamide], the AC50 in experiment [1] and in experiment [2] was 100 to 1000 nM in each case.
As to `Cc1cn2cc(NC(=O)c3ccc(N4CCNCC4)c4c[nH]nc34)cc(Cl)c2n1` [Compound 286, N-{8-chloro-2-methylimidazo[1,2-a]pyridin-6-yl}-4-(piperazin-1-yl)-2H-indazole-7-carboxamide], the AC50 in experiment [1] and in experiment [2] was more than 10000 nM each time.
